1 compound from patent publication US20040220164A1, “Triaza compound immunoregulatory agents” (priority 2001, published 2004) can be followed below.

Molecules are shown by their SMILES. Where two headings read alike, the source gives them in different places.

The test system of series [1] is 6 different primary HIV-1 isolates. Kind of series: Activity against primary HIV-1 isolates in PBMCs. The settings on record: read-out: activity against primary HIV-1 isolates, range. Format: cell-based.
Series [2] in a line: Cytotoxic concentration (Example 2). Format: cell-based. The settings on record: human, PBMC.
A short description of series [3]: Cytotoxic concentration (Example 2). Format: cell-based. The settings on record: human, SupT1 cells; read-out: cytotoxic concentration (CC50).
In series [4] the test system is CCR5-using (R5) HIV-1 strain BaL. Put plainly: Anti-HIV-1 assay (p24 Ag ELISA). The format is cell-based. The settings on record: Human immunodeficiency virus 1, BAL, PBMC; read-out: IC50 against HIV-1 BaL. The method, then: (§1) The antiviral activity of CADA against HIV-1 and RHV-7 was investigated. PBMCs and […] cell-depleted PBMCs (removed with CD8 magnetic beads; Dynal AS, Oslo, Norway), previously activated with purified PHA (2 μg/ml) and rhIL-2 (1 ng/ml) for 3 days, were pelleted and exposed to HIV-1 (1 ng p24 Ag per 10^6 cells) for 2 hours at 370C. Then the cells were washed three times with warm medium and cultured in complete medium containing rhIL-2 (1 ng/ml) in the presence or absence of different concentrations of CADA hydrochloride. The anti-HIV-1 assays were also performed in MT-4 and SupT1 cells. CADA hydrochloride was diluted in the plates, then the MT-4 cells or SupT1 cells were added and finally the T-tropic HIV-1 strains. The supernatant was collected at day 5 for MT-4 cells, day 8 for SupT1 cells and day 12 for PBMCs, and stored at −20° C. and analyzed for HIV-1 core antigen by p24 Ag ELISA (NEN, Brussels, Belgium). The SupT1 cells were refreshed on day 4, and half of the medium and cells were replaced and fresh CADA-free medium was added. For the PBMCs, fresh culture medium was added at day 6 containing rhIL-2 (but no CADA). For the anti-HHV-7 assays in PBMCs, CADA hydrochloride was diluted in a plate, 2×10˜cells were added and then HHV-7 (KHR strain) was added in complete medium containing rhIL-2 (1 ng/ml). Fresh culture medium was added again at day 6 containing rhIL-2 (but no CADA). The same infection protocol was used for the SupT1 cells, but without rhIL-2. The SupT1 cells were refreshed on day 4 and day 8, half of the medium and the cells were replaced, and fresh medium without CADA was added. The HHV-7 antigen expression was monitored (at day 12) with a specific mAb to HHV-7 (RK-4) (Advanced Biotechnologies, Columbia, Md.) by flow cytometry, as described previously (Thang, Y., et al., Antiviral Res. 43:23-35 (1999)).
For orientation: In an ELISA, binding on a coated surface is turned into a signal by an enzyme label.

Series [5] relates to HIV-1 strain IIIB. Kind of series: Anti-HIV-1 assay (p24 Ag ELISA). The format is cell-based. The settings on record: Human immunodeficiency virus 1, IIIB, read-out: IC50 against HIV-1 IIIB. How it is done: as §1
Series [6] has as its target CD4 (Homo sapiens, UniProt P01730). Put plainly: Intracellular CD4 staining. Format: cell-based. Further details: To study the effect of the CADA derivatives on surface CD4 antigen expression, MT-4 and SupT1 cells were incubated; endogenous in cells; host or cells: MT-4, SupT1, PBMC. The settings on record: SupT1 cells, CADA 3.2 μM, 4 days; untreated 97.3%. How it is done:
FIGS. 3A-3B. Intracellular CD4 staining in SupT1 cells after incubation with CADA hydrochloride (3.2 μM) for 4 days. (A) The intracellular CD4 expression of SupT1 cells cultured in medium alone and (B) treated with CADA for 4 days.
The effect of CADA on the intracellular presence of CD4 was also investigated. […] Similar results were also obtained in MT-4 cells and in PBMCs, and with two other anti-CD4 mAbs (OKT4A and OKT4).

In series [7] the test system is CD45. Kind of series: Cell surface antigen expression by flow cytometry (Table 2). The format is cell-based, human. The settings on record: CADA 16 μM, 4 days, percentage of positive cells, unit not given. The method, then: (§2) Expression of various other surface antigens was also examined in MT-4 cells, SupT1 cells and PBMCs after incubation with CADA (16 μM) or CADA-free medium at 37° C. for 4 days. After washing with phosphate-buffered saline (PBS) containing 2% FCS(fetal calf serum), the cells were incubated with mAb (as indicated in Table 1) for 20 min at 4° C. Then the cells were washed, fixed with 1% formaldehyde and analyzed by flow cytometry. All mAbs were purchased from Becton-Dickinson (Erembodegem, Belgium).
On the technique in general: Flow cytometry measures light scatter and fluorescence of single cells or particles in a stream.

For series [8], the system named is CD25. Described as above. The format is cell-based, human. The settings on record: CADA 16 μM, 4 days, percentage of positive cells, unit not given. How it is done: as §2
The subject of series [9] is CD26. Described as above. Format: cell-based, human. The settings on record: CADA 16 μM, 4 days, percentage of positive cells, unit not given. How it is done:
as §2

The test system of series [10] is CD8. The series is described as above. The format is cell-based, human. The settings on record: CADA 16 μM, 4 days, percentage of positive cells, unit not given. How it is done:
as §2

On to `C=C1CN(S(=O)(=O)c2ccc(C)cc2)CCCN(Cc2ccccc2)CCCN(S(=O)(=O)c2ccc(C)cc2)C1` [CADA], for which the IC50 in series [1] was 2 to 2300 nM; in series [4] it was 800 nM; in [5] (MT4, MT-4 cells), 300 nM; in series [5] (PBMC), 600 nM; in series [5] (SUP-T1, SupT1 cells), 900 nM. In addition, the CC50 in [2] worked out at 73000 nM; in series [3] it was 185000 nM. In addition, in [6], the “percentage of intracellular CD4 expression” value stood at 1.3%. The “CD45 cell surface antigen expression” value in [7] (MT-4 T-cells) amounted to 3.57; in series [7] (PBMCs), 98.3; in [7] (SupT1 T-cells), 99.6. Also, the “CD25 cell surface antigen expression” value in [8] (MT-4 T-cells) worked out at 93.3; in series [8] (PBMCs), 35.5; in series [8] (SupT1 T-cells), 1. The “CD26 cell surface antigen expression” value in series [9] (MT-4 T-cells) was 3.2; in series [9] (PBMCs), 3.2; in [9] (SupT1 T-cells), 0.3. The “CD8 cell surface antigen expression” value in series [10] (MT-4 T-cells) stood at 3.5; in series [10] (PBMCs) it was 25.1; in series [10] (SupT1 T-cells), 92.3.
